Source: patent US20260000079A1, “COMPOSITIONS AND METHODS FOR MODULATING IMMUNITY IN PLANTS” (BOYCE THOMPSON INSTITUTE FOR PLANT RESEARCH, INC., priority 2019, published 2026)

Tested on: defense-response genes in Arabidopsis leaves
Experiment: qRT-PCR of defense-response genes in Arabidopsis leaves after root treatment
Type: in vivo, Arabidopsis thaliana
Conditions: leaves 24 hours after root treatment with 1 μM
Protocol: FIG. 4A provides a schematic of the experimental designs for assessing activation of defense pathways and resistance to nematodes and bacteria. […] Bacterial growth was assayed 3 days post inoculation. Data are averages±s.d. (n=17). […] Arabidopsis seedlings were treated with buffer or the indicated concentrations of ascr #18 for 48 hours before inoculation with approximately 300 freshly hatched M. incognita J2 larvae. The numbers of root galls of infected plants were counted 6 weeks post inoculation. Data are averages±s.d. (n≥15). […] Arabidopsis seedlings were treated with the indicated concentrations of ascr #18 for 48 hours before transfer into 12-well plates containing Pluronic® F-127 gel with ˜200 freshly hatched M. incognita J2 larvae. Larvae touching root tips (FIG. 4D) or the whole area of roots (FIG. 4E) were counted at 6 hours post seedling transfer. Data are average±s.d. (n=12). […] Transcript levels were determined by qRT-PCR and plotted as relative fold-change compared to mock treated plants. Data are averages±s.d (n≥6). *P≤0.05; **P≤0.005; ***P≤0.0005; two-tailed t-test.
For each replicate, total RNA from Arabidopsis leaves were isolated from a pool of one leaf from each of three plants. For the seedling RNA analyses, Arabidopsis roots were collected from 30-40 seedlings for each replicates. Total RNA was isolated using Qiagen RNeasy® Plant Mini Kit (Qiagen) according to the manufacturer's instructions. DNAse treatment was done using DNA-Free™ Kit (Ambion) following the manufacturer's instructions. […]
For quantitative real-time PCR (qRT-PCR), transcripts were amplified using SYBR® Premix Ex-Taq™ (Takara) from 2.5 μL of 5×-diluted cDNA in a total 20 μL reaction using 0.1 μL of 100 μM gene-specific primers. […] The relative fold change was calculated according to the 2-ΔΔCt method (Manosalva, et al. (2015) Nat. Commun. 6:7795; Floss, et al. (2013) Proc. Natl. Acad. Sci. 110: E5025-34). […]
Next, it was determined whether differences in activation of defense signaling in wildtype and acx1acx5 plants underlie the observed differences in resistance to nematodes. […]

CC1O[C@@H](O[C@@H](C)CCCCCCCCC(=O)O)C(O)C[C@H]1O (stereo in doubt) [ascr #18, (10R)-(3′R,5′R-dihydroxy-6′S-methyl-(2H)-tetrahydropyran-2-yloxy)-undecanoic acid]
induction of MAPK-related FRK1 (acx1acx5 vs wildtype): slightly weaker in the mutant | induction of jasmonic acid signaling genes (PDF1.2, AOS, LOX2) (wildtype vs acx1acx5): to similar extents | induction of salicylic acid signaling genes (PR-1, PR-4) (wildtype vs acx1acx5): to similar extents
